Test system: acute lymphocytic leukemia (ALL), Philadelphia chromosome positive, with bone marrow failure
Assay: Rifampicin treatment of a single patient with relapsed acute lymphocytic leukemia and end stage bone marrow failure
Format: in vivo, human
Experimental: The single leukemia patient studied, and reported here, was a person who presented with acute lymphocytic leukemia (ALL), Philadelphia chromosome positive, who was converted to remission with a stem cell transplant from a matching sibling. Within one year, the leukemia reverted to an active form, and they were treated with all anti-leukemic agents known, and these included several experimental agents from MD Anderson Hospital in Houston.
They developed diabetes associated with steroids, and right maxillary sinus infection with a species of Mucorales. They underwent debridement of their sinus, with removal of bone and tissue up to the floor of the […] orbit. The sense of smell had been lost during the mucor infection. Their condition worsened in the Houston hospital. They developed bone marrow failure, and was transferred by air ambulance in a bed to their home in the Chicago area with instructions for terminal hospice care. They were bedridden, unable to sit up, and appeared moribund.
The laboratory findings at that time included:
The present inventor, who is a physician, is a cousin of the patient. After informed consent, which included a description of the experience of the inventor, the patient was started on rifampicin (rifampin) 600 mg daily not within 2½ hours of meals. This treatment was not part of any protocol, but was a private request to the inventor.

[1] = single ALL patient, rifampicin 600 mg daily
[2] = single ALL patient, rifampicin 600 mg daily, time after start of treatment

## Rifampicin
Approximately 5 weeks after treatment began, rifampicin 600 mg daily
  white cell levels (mature leukocytes and lymphocytes): continued at normal levels
Patient presenting with acute lymphocytic leukemia treated with rifampicin
  platelet counts over time (FIG. 3): increase in platelet counts over time
Same patient and time course as FIG. 3
  white cell counts over time (FIG. 4): increase in white cell counts
[1]
  clinical condition (strength, sitting, standing, short walks): marked clinical improvement
  platelet drop leading to temporary discontinuation (suspected platelet agglutination): transient drop in platelets
[2]
  time until patient began to show bone marrow recovery: ≤ 2 weeks
  time until significant parameters of bone marrow remission had developed: ≤ 6 weeks
Single ALL patient, rifampicin 600 mg daily, 11K before treatment
  platelets, level reached on treatment: 48 K
